Measurements from patent publication US20040009534A1, “Protein analysis” (DYAX CORPORATION, priority 2002, published 2004).
Where two headings read alike, the source gives them in different places.

Columns and labels:
[1] = target: T1, chicken ovalbumin (Gallus gallus, UniProt P01012); assay: Dissociation constants (KD) against a panel of albumins, negative control; format: binding; conditions: both sets of buffers
T1 sequence (P01012 1-386): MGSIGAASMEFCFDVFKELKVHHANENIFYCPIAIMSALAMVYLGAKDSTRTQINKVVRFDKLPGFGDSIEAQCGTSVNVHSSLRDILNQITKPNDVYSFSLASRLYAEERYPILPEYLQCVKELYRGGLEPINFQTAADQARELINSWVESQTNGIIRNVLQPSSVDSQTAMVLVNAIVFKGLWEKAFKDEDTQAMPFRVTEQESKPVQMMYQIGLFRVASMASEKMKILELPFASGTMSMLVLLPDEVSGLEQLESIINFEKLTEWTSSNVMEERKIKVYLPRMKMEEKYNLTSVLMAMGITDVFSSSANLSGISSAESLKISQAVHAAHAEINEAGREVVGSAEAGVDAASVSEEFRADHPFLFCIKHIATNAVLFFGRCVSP
Description: (§1) The binding properties of a ligand that binds a serum protein can be readily assessed using various assay formats. For example, the binding property of a ligand can be measured in solution by fluorescence anisotropy, which provides a convenient and accurate method of determining a dissociation constant (KD) of a binding moiety for a serum albumin from one or more different species. In one such procedure, a binding moiety described herein is labeled with fluorescein. The fluorescein-labeled binding moiety may then be mixed in wells of a multi-well assay plate with various concentrations of a particular species of serum albumin. Fluorescence anisotropy measurements are then carried out using a fluorescence polarization plate reader. The binding interaction between a serum protein and a non-covalently associated compound can be similarly characterized. Other solution measures for studying binding properties include fluorescence resonance energy transfer (FRET) and NMR.
Chicken ovalbumin is not homologous to HSA as determined by sequence alignment analysis.

[2] = target: Goat albumin; assay: Dissociation constants (KD) against a panel of albumins; format: binding
Description: as §1

[3] = target: T2, HSA (Homo sapiens, UniProt P02768); assay: HSA binding test of analytical peptide-Sepharose affinity columns; conditions: 1 mg HSA injection; for Total Capacity: 0.35 ml column
T2 construct: SwissProt entry: P02768 and/or the following mature
Description: The immobilization reaction was initiated by the addition of diisopropylethylamine to 2% (vol/vol). After 4 hours of slow mixing on a shaker table at room temperature, the reaction was quenched by the addition of an equal volume of 0.5 M hydroxylamine, pH 8, in water. For those peptides with ivDde-protected internal lysines, the hydroxylamine quench treatment also removed the ivDde-protecting group. To allow for complete protecting group removal, the quenched reaction was allowed to incubate overnight at room temperature. Once quenched and deprotected, the immobilized peptide-Sepharose resin was washed at least 3 times with water to remove solvent and unbound peptide. Non-specifically bound peptide was eluted off the resin by washing the resin at least three times in 30 mM phosphoric acid, pH 2. Since the NHS-Sepharose resin surface becomes negatively charged after hydrolysis, an acidic wash neutralizes the surface and removes any peptides bound non-covalently to the surface via electrostatic interactions. After washing, the resin was resuspended in water as a 50% v/v mixture. A 50 μl aliquot was used to determine the ligand density on the resin by quantitative amino acid analysis. Finally, the resin slurry was packed into 0.35 ml OMNIFIT™ glass columns (3 mm×50 mm) for analytical testing.
Each peptide was immobilized at high density on NHS-Sepharose resin using the procedure outlined above. The peptides were immobilized via a C-terminal lysine. […] Each column was tested for HSA binding (1 mg injection) in binding buffer—3 mM sodium phosphate, 0.1% Tween-20 detergent, pH 6.2.
One milliliter of albumin solution was passed through each column (0.35 ml) previously equilibrated in equilibration buffer. The columns were washed with the same equilibration buffer and then eluted with 100 mM Tris, pH 9.1 (flow rate, 0.5 ml/min for all steps). The column chromatography was carried out using a BIO-RAD BIOLOGIC™ monitoring system (Hercules, Calif.) throughout this testing with absorbance monitoring at 280 nm.

[4] = target: murine serum albumin (MSA) (Mus musculus, UniProt P07724); assay: Dissociation constants (KD) against a panel of albumins; format: binding
Description: as §1

[5] = target: T2, HSA; assay: as above; format: binding; conditions: phosphate, pH 6.2, O M NaCl
Description: as §1

[6] = target: human IgG1; conditions: read-out: dissociation constants (KD), cited from earlier work
[7] = target: human IgG3; conditions: human IgG3, pH 5.7; read-out: dissociation constants (KD); cited from earlier work
[8] = tested on: Fc protein; conditions: from buffer solution and tobacco extract; cited from earlier work
[9] = fraction: Elution (100 mM Tris, pH 9.1)

Sequence of human IgG1 (P01857 1-330 isoform P01857-1): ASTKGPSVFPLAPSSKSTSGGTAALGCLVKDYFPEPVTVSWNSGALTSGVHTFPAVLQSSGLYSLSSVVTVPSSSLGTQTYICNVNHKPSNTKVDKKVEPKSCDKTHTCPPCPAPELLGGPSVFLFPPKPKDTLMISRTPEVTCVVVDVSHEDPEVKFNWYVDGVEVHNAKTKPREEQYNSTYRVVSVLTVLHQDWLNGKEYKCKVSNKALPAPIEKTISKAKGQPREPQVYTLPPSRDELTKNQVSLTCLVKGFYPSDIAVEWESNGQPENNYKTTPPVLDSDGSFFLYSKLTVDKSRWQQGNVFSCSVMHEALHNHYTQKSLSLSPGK
T2 sequence (P02768 25-609): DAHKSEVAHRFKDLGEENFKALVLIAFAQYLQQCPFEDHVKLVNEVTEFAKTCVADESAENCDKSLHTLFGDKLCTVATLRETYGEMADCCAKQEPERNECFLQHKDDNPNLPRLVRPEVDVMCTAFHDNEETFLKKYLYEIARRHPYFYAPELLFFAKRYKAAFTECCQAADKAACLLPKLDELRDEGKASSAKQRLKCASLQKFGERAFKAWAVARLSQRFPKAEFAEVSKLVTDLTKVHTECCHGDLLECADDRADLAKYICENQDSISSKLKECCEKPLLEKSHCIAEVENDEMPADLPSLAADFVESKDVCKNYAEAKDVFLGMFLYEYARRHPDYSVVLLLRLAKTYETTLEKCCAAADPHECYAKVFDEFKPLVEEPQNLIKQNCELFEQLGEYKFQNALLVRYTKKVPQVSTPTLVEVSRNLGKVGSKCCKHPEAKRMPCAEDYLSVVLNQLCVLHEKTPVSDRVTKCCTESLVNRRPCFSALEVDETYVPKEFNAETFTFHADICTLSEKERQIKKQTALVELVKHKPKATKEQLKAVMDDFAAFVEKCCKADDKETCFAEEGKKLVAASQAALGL
Sequence of murine serum albumin (MSA) (P07724 25-608): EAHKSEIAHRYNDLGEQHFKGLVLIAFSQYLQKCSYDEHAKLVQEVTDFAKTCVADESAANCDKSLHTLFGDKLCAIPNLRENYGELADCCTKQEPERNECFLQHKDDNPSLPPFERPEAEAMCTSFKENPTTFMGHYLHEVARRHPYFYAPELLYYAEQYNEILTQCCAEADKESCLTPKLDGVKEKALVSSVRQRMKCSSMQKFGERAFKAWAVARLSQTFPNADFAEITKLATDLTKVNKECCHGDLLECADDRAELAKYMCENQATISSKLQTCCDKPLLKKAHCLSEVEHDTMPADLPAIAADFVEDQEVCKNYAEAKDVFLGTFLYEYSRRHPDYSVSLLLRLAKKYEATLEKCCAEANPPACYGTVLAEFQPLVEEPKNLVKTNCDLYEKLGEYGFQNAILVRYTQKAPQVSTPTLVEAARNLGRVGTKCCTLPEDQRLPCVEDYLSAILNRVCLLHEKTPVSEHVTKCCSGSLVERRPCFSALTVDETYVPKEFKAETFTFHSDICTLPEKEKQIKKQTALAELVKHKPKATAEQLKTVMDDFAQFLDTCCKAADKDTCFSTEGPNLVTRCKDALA
Sequence of human IgG3 (P01860 1-377 isoform P01860-1): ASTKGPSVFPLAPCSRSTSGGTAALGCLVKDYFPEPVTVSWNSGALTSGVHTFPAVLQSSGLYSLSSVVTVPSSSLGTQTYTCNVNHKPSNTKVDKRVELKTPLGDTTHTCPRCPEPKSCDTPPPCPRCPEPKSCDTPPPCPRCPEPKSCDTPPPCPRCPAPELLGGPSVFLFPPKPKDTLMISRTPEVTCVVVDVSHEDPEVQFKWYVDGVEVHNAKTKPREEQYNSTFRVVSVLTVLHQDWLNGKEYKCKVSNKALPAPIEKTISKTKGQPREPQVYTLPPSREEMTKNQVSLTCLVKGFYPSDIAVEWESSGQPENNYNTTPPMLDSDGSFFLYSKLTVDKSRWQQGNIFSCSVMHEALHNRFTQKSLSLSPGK

Compound | binding to chicken ovalbumin [1] | Kd ([2]; PBS, pH 7.4, […] NaCl) [µM] | Kd ([2]; phosphate, pH 6.2, O M NaCl) [µM] | Total Capacity [3] [mg/mL] | μg HSA [3, 9] [µg] | μg HSA ([3]; fraction: Flow through, pH 6.2) [µg] | Kd ([6]; IgG1, pH 7.4) [µM] | Kd ([6]; human IgG1, pH 5.7) [µM] | also measured
CC[C@H](C)[C@@H]1NC(=O)[C@H](CCCNC(=N)N)NC(=O)[C@H](CC(=O)O)NC(=O)[C@@H](NC(=O)[C@H](Cc2ccccc2)NC(=O)[C@H](Cc2c[nH]c3ccccc23)NC(=O)[C@H](Cc2ccccc2)NC(=O)[C@H](CC(=O)O)NC(=O)CNC(=O)[C@@H](NC(=O)CNC(=O)[C@H](CCC(=O)O)NC(=O)[C@H](C)NC(C)=O)[C@@H](C)O)CSSC[C@@H](C(=O)N[C@@H](CCC(=O)O)C(=O)N[C@@H](Cc2ccccc2)C(=O)N[C@@H](CC(C)C)C(=O)N[C@@H](CC(=O)O)C(=O)N2CCC[C@H]2C(=O)N[C@@H](CCC(=O)O)C(=O)NCC(=O)NCC(=O)NCC(=O)N[C@@H](CCCCN)C(N)=O)NC(=O)[C@H](CC(C)C)NC(=O)[C@H](Cc2c[nH]cn2)NC(=O)[C@H](CCC(N)=O)NC(=O)[C@@H]2CCCN2C(=O)[C@H](Cc2ccc(O)cc2)NC(=O)[C@H](Cc2c[nH]c3ccccc23)NC(=O)[C@H](C)NC1=O [DX-236] | neither peptide showed any significant binding | 23 | 1.6 | >2.7 | 947 | 0 |  |  | 
CC[C@H](C)[C@@H]1NC(=O)[C@H](Cc2c[nH]c3ccccc23)NC(=O)[C@H](CO)NC(=O)[C@H](Cc2ccccc2)NC(=O)[C@H](CCCCN)NC(=O)[C@@H](NC(=O)[C@H](CCSC)NC(=O)[C@H](CC(N)=O)NC(=O)[C@H](CCCNC(=N)N)NC(=O)[C@H](CC(=O)O)NC(=O)CNC(=O)[C@@H](NC(=O)CNC(=O)[C@H](CCC(=O)O)NC(=O)[C@H](C)NC(C)=O)[C@@H](C)O)CSSC[C@@H](C(=O)N[C@@H](C)C(=O)N[C@@H](CCCNC(=N)N)C(=O)N[C@@H](C)C(=O)N[C@@H](CC(=O)O)C(=O)N2CCC[C@H]2C(=O)N[C@@H](CCC(=O)O)C(=O)NCCCCCC(=O)N[C@@H](CCCCN)C(N)=O)NC(=O)[C@H](Cc2ccccc2)NC(=O)[C@H](C)NC(=O)[C@@H]2CCCN2C(=O)[C@H](CO)NC(=O)[C@H](CCCNC(=N)N)NC1=O [DX-321] | neither peptide showed any significant binding | 83 | 95 | >1.1 | 370 | 554 |  |  | Kd ([4]; PBS, pH 7.4, 0.14 M NaCl): > 200 µM; Kd ([4]; phosphate, pH 6.2, O M NaCl): > 200 µM; KD [5]: submicromolar
AGYYWCNYWGLCPDQGTPGPEGGGK [DX254] |  |  |  |  |  |  | < 2 | < 0.1 | Kd ([6]; human IgG1, pH 9.3): < 1 µM
GDDDHCYWFREWFNSECPHGEPGPEGGGK [DX252] |  |  |  |  |  |  |  |  | Kd [7]: < 0.1 µM
GDDHMCVYTTWGELIWCDNHEPGPEGGGK [DX249] |  |  |  |  |  |  | < 0.5 | < 0.1 | 
GDRRACSRDWSGALVWCAGHEPGPEGGGK [DX253] |  |  |  |  |  |  |  |  | capture efficiency (quantitative binding of Fc protein) [8]: > 90 % of total load
